What is called IC50 is the concentration at which inhibition is half-maximal.

For one test, the target named is T1, human ACSS1 protein (Homo sapiens, UniProt Q9NUB1).
T1 construct: purchased MyBioSource
T1 sequence (Q9NUB1 38-689): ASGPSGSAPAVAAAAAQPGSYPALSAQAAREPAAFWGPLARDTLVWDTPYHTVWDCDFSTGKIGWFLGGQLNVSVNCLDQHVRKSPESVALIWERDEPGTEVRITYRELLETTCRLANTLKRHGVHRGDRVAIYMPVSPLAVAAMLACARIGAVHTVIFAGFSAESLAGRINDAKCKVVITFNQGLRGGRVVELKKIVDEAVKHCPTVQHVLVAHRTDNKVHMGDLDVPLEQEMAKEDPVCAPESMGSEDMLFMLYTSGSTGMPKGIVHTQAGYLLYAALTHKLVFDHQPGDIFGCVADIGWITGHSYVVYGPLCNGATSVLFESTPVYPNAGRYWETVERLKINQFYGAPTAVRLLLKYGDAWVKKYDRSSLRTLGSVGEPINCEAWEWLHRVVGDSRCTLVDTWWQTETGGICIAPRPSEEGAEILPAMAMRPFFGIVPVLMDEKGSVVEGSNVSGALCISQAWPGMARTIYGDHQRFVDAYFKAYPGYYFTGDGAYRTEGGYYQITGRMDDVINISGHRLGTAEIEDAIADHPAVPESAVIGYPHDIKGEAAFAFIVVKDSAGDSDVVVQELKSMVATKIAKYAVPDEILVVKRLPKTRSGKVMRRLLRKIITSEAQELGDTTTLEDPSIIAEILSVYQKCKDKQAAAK
The test is described as follows: ACSS1 cell-free activity assay (pyrophosphatase-coupled, Biomol green). Format: biochemical. The note with it: 5 nM human ACSS1, 30 minutes at room temperature, absorbance at 620 nm. In outline:
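5 nM human ACSS1 incubated 30 min at RT with compound in pH 7.5 Hepes buffer with 15 μM CoA, 5 mM acetate, 300 μM ATP, 2 mM MgCl2 and pyrophosphatase. Released phosphate detected with Biomol Green (30 min), absorbance 620 nm. IC50 from constrained non-linear regression.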

For test [1], the target named is T2, ACSS2 in MDA-MB-468 cells (Homo sapiens, UniProt Q9NR19).
T2 construct: endogenous in cells; host or cells: MDA-MB-468 cells, hypoxia (1% O2)
T2 sequence (Q9NR19 whole entry): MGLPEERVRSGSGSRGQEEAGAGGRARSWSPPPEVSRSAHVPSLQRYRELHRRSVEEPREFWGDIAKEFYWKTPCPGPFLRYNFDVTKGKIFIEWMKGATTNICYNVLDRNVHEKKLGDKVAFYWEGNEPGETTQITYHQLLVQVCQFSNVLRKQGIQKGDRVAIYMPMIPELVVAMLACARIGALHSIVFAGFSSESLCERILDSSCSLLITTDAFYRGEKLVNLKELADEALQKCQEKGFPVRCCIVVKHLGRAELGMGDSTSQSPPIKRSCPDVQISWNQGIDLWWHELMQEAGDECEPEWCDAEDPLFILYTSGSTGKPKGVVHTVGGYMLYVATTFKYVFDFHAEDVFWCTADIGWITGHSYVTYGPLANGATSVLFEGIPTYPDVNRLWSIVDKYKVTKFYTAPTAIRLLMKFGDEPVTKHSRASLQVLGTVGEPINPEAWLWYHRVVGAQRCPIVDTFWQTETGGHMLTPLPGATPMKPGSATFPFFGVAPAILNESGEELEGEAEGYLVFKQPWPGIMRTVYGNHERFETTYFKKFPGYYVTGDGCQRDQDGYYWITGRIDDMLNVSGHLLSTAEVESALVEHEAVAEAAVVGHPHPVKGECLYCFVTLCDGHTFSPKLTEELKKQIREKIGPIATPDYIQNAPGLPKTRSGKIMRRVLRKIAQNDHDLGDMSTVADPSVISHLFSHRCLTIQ
The test is described as follows: Cellular fatty-acid IC50: 13C-acetate incorporation into fatty acids (palmitate), LC-MS. Format: cell-based. The note with it: hypoxic conditions (1% O2), 75% charcoal stripped serum, 5 hours, 13C-acetate into palmitate, read-out: Cellular Fatty-acid IC50 High Serum MDA468. The procedure: Cellular Fatty-Acid IC50 Determination:
The cellular activity of ACSS2 was measured in MDA-MB-468 cells under hypoxic conditions by tracing the incorporation of labelled carbons from ^13C-acetate into newly synthesized fatty acids. The assay was performed using 75% charcoal stripped serum (high serum conditions).
MDA-MB-468 cells were seeded in 12-well plates (0.35×10^6 cells per well) in plating medium (Dulbecco's Modified Eagle Medium containing 25 mM D-glucose, 1 mM sodium pyruvate, 10% v/v fetal bovine serum, and 2 mM glutamine) and incubated for 24 hours under hypoxic conditions (1% O2).
The next day, tracing medium containing DMEM (01-057-1A) containing 75% charcoal stripped serum (Biological industries 04-201-1A), 3.5 μg/mL Biotin (Sigma-Aldrich B4639), 1 mM Pyruvate, 5.5 mM Glucose, 0.65 mM Glutamine and 0.5 mM ^13C-Acetate (Sigma-Aldrich #282014) with serial dilutions of the compounds in the range of 0.000512-1000 nM were prepared. The plating medium was replaced with 1 mL tracing medium plus compounds and the cells were incubated for 5 hours under hypoxic conditions (1% O2). Plating medium in control wells (without cells or without compounds) was replaced with 1 mL tracing medium containing 0.01% v/v DMSO.
The level of ^13C-acetate incorporation into fatty acids (palmitate) was measured by LC-MS analysis and IC50 as described below:
Sample Preparation for LC-MS
• a) Cells were washed twice with cold phosphate buffered saline (PBS), scraped into 0.5 mL EDTA pH 8.0, and transferred into 1.1 mL V-shaped HPLC glass tubes. • b) The cell suspensions were centrifuged for 5 minutes at 400×g, 4° C. and the supernatants were removed. • c) Cell pellets were frozen at −80° C.
• d) Cell pellets were resuspended in 0.2 mL of 80% v/v ethanol in water containing 0.02 M NaOH in 1.1 ml glass (v-bottom) HPLC vials. • e) The vials were closed tight and incubated at 66° C. for 60 minutes. • f) Acetonitrile containing 2% v/v formic acid (150 μL) was added to each vial and the mixtures were transferred to Eppendorf tubes for centrifugation at 17 000×g for 20 minutes. • g) Supernatants were transferred to LC-MS vials.
The relative palmitate concentration was measured by LC-MS in reconstructed selected ion monitoring (RSIM) mode and negative ion mode. Samples were analyzed on a Phenomenex Kinetex 2.6 μm XB-C18 150×2.1 mm column at 45° C. (0.4 mL/minute flow rate) using: • a) A gradient from 15% A/85% C to 100% C for 0 to 2 minutes (A: water containing 5% v/v acetonitrile, 10 mM ammonium acetate, and 10 mM acetic acid; C: a mixture of 50% v/v acetonitrile and 50% v/v methanol). • b) Isocratic flow (100% C) for 2 to 5 minutes. • c) Equilibration in isocratic conditions (15% A/85% C) for 5 to 8 minutes.
Palmitate was eluted at approximately 3.4 minutes.
The percent inhibition was calculated relative to the sample without compound and after background deduction. IC50 values were calculated using non-linear regression curve fit analysis with 0% and 100% constraints (CDD Vault, Collaborative Drug Discovery, Inc. or GraphPad Prism).
The inhibitory activities of each compound against ACSS2 in MDA-MB-468 cells under high serum conditions, as determined by ^13C-acetate incorporation into fatty acids (palmitate), are presented in Table 2.

In a further test the target is T3, human ACSS2 protein (Homo sapiens, UniProt Q9NR19).
T3 construct: purchased OriGene Technologies, Inc
T3 sequence (Q9NR19 whole entry): as above
Briefly: ACSS2 cell-free activity assay (pyrophosphatase-coupled, Biomol green). The conditions noted are these: 10 nM human ACSS2, 90 minutes at 37 C, absorbance at 620 nm; read-out: ACSS2 Biochemical IC50. In outline: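 10 nM human ACSS2 incubated 90 min at 37 C with compound, 300 μM ATP, 10 μM CoA, 5 mM NaAc in pH 7.5 Hepes buffer with 0.5 U/ml pyrophosphatase. Released phosphate detected with Biomol Green at 620 nm; IC50 by non-linear regression constrained to 0% and 100%.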

In the case of `CNC(=S)c1cccc(NC(=O)c2c(C)[nH]c(-c3ccc(OC)c(-c4c(C)cccc4C)c3)[n+]2[O-])c1` [Compound 196, 2-(6-methoxy-2′,6′-dimethyl-[1,1′-biphenyl]-3-yl)-5-methyl-4-((3-(methylcarbamothioyl)phenyl)carbamoyl)-1H-imidazole 3-oxide], on human ACSS1 protein, the “ACSS1 Biochemical IC50 (nM)” value is on record as “Inactive”. The IC50 is less than 20 nM in test [1] and less than 1 nM on human ACSS2 protein.
`COc1ccc(-c2[nH]c(C)c(C(=O)Nc3cccc(S(=O)(=O)N(C)C)c3)[n+]2[O-])cc1-c1c(C)cccc1C` [Compound 179, 4-((3-(N,N-dimethylsulfamoyl)phenyl)carbamoyl)-2-(6-methoxy-2′,6′-dimethyl-[1,1′-biphenyl]-3-yl)-5-methyl-1H-imidazole 3-oxide]: the “ACSS1 Biochemical IC50 (nM)” value at human ACSS1 protein was “Inactive”. The IC50 was more than 50 nM in test [1] and 1 to 30 nM on human ACSS2 protein.
The matching figures for `Cc1cccc(C)c1-c1cc(-c2[nH]c(C)c(C(=O)Nc3cccc(C(F)(F)C4CC4)c3)[n+]2[O-])cc(C(C)O)c1` (centres unmarked) [Compound 143, 4-((3-(cyclopropyldifluoromethyl)phenyl)carbamoyl)-2-(5-(1-hydroxyethyl)-2′,6′-dimethyl-[1,1′-biphenyl]-3-yl)-5-methyl-1H-imidazole 3-oxide]: “Inactive”, 20 to 50 nM and less than 1 nM.
In the same order, the values of `Cc1cccc(C)c1-c1cc(-c2[nH]c(C)c(C(=O)Nc3cccc(C(F)(F)C4CC4)c3)[n+]2[O-])ccc1Cl` [Compound 197, 2-(6-chloro-2′,6′-dimethyl-[1,1′-biphenyl]-3-yl)-4-((3-(cyclopropyldifluoromethyl)phenyl)carbamoyl)-5-methyl-1H-imidazole 3-oxide] are “Inactive”, more than 50 nM and less than 1 nM.
In the case of `CCC(F)(F)c1cccc(NC(=O)c2c(C)[nH]c(-c3ccc(OC)c(-c4ncccc4C)c3)[n+]2[O-])c1` [Compound 100, 4-((3-(1,1-difluoropropyl)phenyl)carbamoyl)-2-(4-methoxy-3-(3-methylpyridin-2-yl)phenyl)-5-methyl-1H-imidazole 3-oxide], the “ACSS1 Biochemical IC50 (nM)” value at human ACSS1 protein is “Inactive”. Besides, the IC50 in test [1] is less than 20 nM.
With `CCC(F)(F)c1cccc(NC(=O)c2c(C)[nH]c(-c3ccc(OC)cc3)[n+]2[O-])c1` [Compound 101, 4-((3-(1,1-difluoropropyl)phenyl)carbamoyl)-2-(4-methoxyphenyl)-5-methyl-1H-imidazole 3-oxide], the “ACSS1 Biochemical IC50 (nM)” value on human ACSS1 protein is reported as “Inactive”. Besides, in test [1], the IC50 was 20 to 50 nM.
With `CCN(C)C(=O)c1cccc(NC(=O)c2c(C)[nH]c(-c3ccc(OC)c(-c4c(C)cccc4C)c3)[n+]2[O-])c1` [Compound 140, 4-((3-(ethyl(methyl)carbamoyl)phenyl)carbamoyl)-2-(6-methoxy-2′,6′-dimethyl-[1,1′-biphenyl]-3-yl)-5-methyl-1H-imidazole 3-oxide], at human ACSS1 protein, the “ACSS1 Biochemical IC50 (nM)” value was “Inactive”. The IC50 at human ACSS2 protein was in the range of 1 to 30 nM.
In the same order, the values of `COc1ccc(-c2[nH]c(C)c(C(=O)Nc3ccc4[nH]cnc4c3)[n+]2[O-])cc1-c1c(C)cccc1C` [Compound 173, 4-((1H-benzo[d]imidazol-5-yl)carbamoyl)-2-(6-methoxy-2′,6′-dimethyl-[1,1′-biphenyl]-3-yl)-5-methyl-1H-imidazole 3-oxide] are “Inactive” and more than 30 nM.
Turning to `COc1ccc(-c2[nH]c(C)c(C(=O)Nc3cccc(C(=O)N4CCCC4)c3)[n+]2[O-])cc1-c1c(C)cccc1C` [Compound 138, 2-[3-(2,6-dimethylphenyl)-4-methoxy-phenyl]-5-methyl-3-oxido-N-[3-(pyrrolidine-1-carbonyl)phenyl]-1H-imidazol-3-ium-4-carboxamide], the “ACSS1 Biochemical IC50 (nM)” value at human ACSS1 protein is “Inactive”. The IC50 on human ACSS2 protein was more than 30 nM.
In the case of `Cc1cccc(C)c1-c1cc(-c2[nH]c(C)c(C(=O)Nc3cccc(C(F)(F)C4CC4)c3)[n+]2[O-])cc(C(C)C)c1` [Compound 134, 4-((3-(cyclopropyldifluoromethyl)phenyl)carbamoyl)-2-(5-isopropyl-2′,6′-dimethyl-[1,1′-biphenyl]-3-yl)-5-methyl-1H-imidazole 3-oxide], at human ACSS1 protein, the “ACSS1 Biochemical IC50 (nM)” value is listed as “Inactive”. Further, the IC50 on human ACSS2 protein lay in the range of 1 to 30 nM.
In the same order, the values of `COc1ccc(-c2[nH]c(C)c(C(=O)Nc3cccc(C(O)(O)C(F)(F)F)c3)[n+]2[O-])cc1-c1c(C)cccc1C` [Compound 195, 2-(6-methoxy-2′,6′-dimethyl-[1,1′-biphenyl]-3-yl)-5-methyl-4-((3-(2,2,2-trifluoro-1,1-dihydroxyethyl)phenyl)carbamoyl)-1H-imidazole 3-oxide] are “Inactive” and more than 30 nM.
Turning to `CCC(F)(F)c1cccc(NC(=O)c2c(C)[nH]c(-c3ccc(OC)c(-c4ncccn4)c3C)[n+]2[O-])c1` [Compound 118, 4-((3-(1,1-difluoropropyl)phenyl)carbamoyl)-2-(4-methoxy-2-methyl-3-(pyrimidin-2-yl)phenyl)-5-methyl-1H-imidazole 3-oxide], the “ACSS1 Biochemical IC50 (nM)” value at human ACSS1 protein is recorded as “Inactive”. In addition, the 50% inhibitory concentration (IC50) at human ACSS2 protein was more than 30 nM.
In the same order, the values of `COCCN(C)C(=O)c1cccc(NC(=O)c2c(C)[nH]c(-c3ccc(OC)c(-c4c(C)cccc4C)c3)[n+]2[O-])c1` [Compound 141, 2-(6-methoxy-2′,6′-dimethyl-[1,1′-biphenyl]-3-yl)-4-((3-((2-methoxyethyl)(methyl)carbamoyl)phenyl)carbamoyl)-5-methyl-1H-imidazole 3-oxide] are “Inactive” and more than 30 nM.
Turning to `CCCCc1cc(-c2c(C)cccc2C)cc(-c2[nH]c(C)c(C(=O)Nc3cccc(C(F)(F)C4CC4)c3)[n+]2[O-])c1` [Compound 161, 2-(5-butyl-2′,6′-dimethyl-[1,1′-biphenyl]-3-yl)-4-((3-(cyclopropyldifluoromethyl)phenyl)carbamoyl)-5-methyl-1H-imidazole 3-oxide], on human ACSS1 protein, the “ACSS1 Biochemical IC50 (nM)” value was “Inactive”. Also, the IC50 at human ACSS2 protein is less than 1 nM.

The record behind these values is patent publication US20230174507A1, “IMIDAZOLE 3-OXIDE DERIVATIVE BASED ACSS2 INHIBITORS AND METHODS OF USE THEREOF” (METABOMED LTD., priority 2020, published 2023).
